# Experimental data as given in patent publication US10167262B2, “Herbicidal substituted 3-arylpyrazoles” (FMC CORPORATION, priority 2014, dated 2019).
# Experiments:
# Type in all cases: in vivo
# [1] = test system: bermudagrass (Cynodon dactylon); assay: Test C postemergence greenhouse test, plant response rating 0-100
# How it was run: (§1)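 Scores run from 0, meaning no effect, to 100, meaning complete control, and come from visual comparison with untreated controls. Treatment was a postemergence application to plants 2–18 cm tall. Assessment followed 13 to 15 days of greenhouse growth.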
# [2] = test system: goosegrass (Eleusine indica); assay: as above
# How it was run: as §1
# [3] = test system: soybean (Glycine max); assay: Test C pre-/postemergence greenhouse test, plant response rating 0-100; details: Glycine max, post-emergence, Postemergence; for plant injury at 62 g/ha: 62 g ai/ha; for plant injury at 62 g/ha / plant injury at 125 g/ha: read-out: Plant response rating (0 to 100), Soybean; for plant injury at 125 g/ha: 125 g ai/ha
# How it was run: (§2)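 Seeds were sown in a loam soil–sand blend and sprayed preemergence with test chemicals in a non-phytotoxic solvent mixture containing surfactant; postemergence plants in peat/vermiculite medium were treated at 2–18 cm (1- to 4-leaf stage). After 13 to 15 days in the greenhouse, injury was rated visually against untreated controls.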
# [4] = test system: galium (catchweed bedstraw, Galium aparine); assay: as above; details: Galium, post-emergence, Postemergence; for pest or weed control at 31 g/ha: 31 g ai/ha; for pest or weed control at 31 g/ha / pest or weed control at 62 g/ha / pest or weed control at 125 g/ha: read-out: Plant response rating (0 to 100), Galium; for pest or weed control at 62 g/ha: 62 g ai/ha; for pest or weed control at 125 g/ha: 125 g ai/ha
# How it was run: as §2
# [5] = test system: morningglory (Ipomoea coccinea); assay: as above; details: Ipomoea, post-emergence, Postemergence; for pest or weed control at 62 g/ha: 62 g ai/ha; for pest or weed control at 62 g/ha / pest or weed control at 125 g/ha: read-out: Plant response rating (0 to 100), Morningglory; for pest or weed control at 125 g/ha: 125 g ai/ha
# How it was run: as §2
# [6] = test system: ragweed (common ragweed, Ambrosia elatior); assay: as above; details: Ambrosia artemisiifolia, post-emergence, Postemergence; for pest or weed control at 62 g/ha: 62 g ai/ha; for pest or weed control at 62 g/ha / pest or weed control at 125 g/ha: read-out: Plant response rating (0 to 100), Ragweed; for pest or weed control at 125 g/ha: 125 g ai/ha
# How it was run: as §2
# [7] = test system: lambsquarters (Chenopodium album); assay: as above; details: Chenopodium album, post-emergence, Postemergence; for pest or weed control at 62 g/ha: 62 g ai/ha; for pest or weed control at 62 g/ha / pest or weed control at 125 g/ha: read-out: Plant response rating (0 to 100), Lambsquarters; for pest or weed control at 125 g/ha: 125 g ai/ha
# How it was run: as §2
# [8] = test system: pigweed (Amaranthus retroflexus); assay: as above; details: Amaranthus retroflexus, post-emergence, Postemergence; for pest or weed control at 125 g/ha: 125 g ai/ha
# How it was run: as §2
# [9] = test system: velvetleaf (Abutilon theophrasti); assay: as above; details: Abutilon theophrasti, post-emergence, Postemergence; for pest or weed control at 62 g/ha: 62 g ai/ha; for pest or weed control at 62 g/ha / pest or weed control at 125 g/ha: read-out: Plant response rating (0 to 100), Velvetleaf; for pest or weed control at 125 g/ha: 125 g ai/ha
# How it was run: as §2
# [10] = test system: Italian ryegrass (Lolium multiflorum); assay: as above; details: Lolium multiflorum, post-emergence, Postemergence; for pest or weed control at 62 g/ha: 62 g ai/ha; for pest or weed control at 62 g/ha / pest or weed control at 125 g/ha: read-out: Plant response rating (0 to 100), Ryegrass, Italian; for pest or weed control at 125 g/ha: 125 g ai/ha
# How it was run: as §2
# [11] = test system: blackgrass (Alopecurus myosuroides); assay: as above; details: Alopecurus myosuroides, post-emergence, Postemergence; for pest or weed control at 31 g/ha: 31 g ai/ha; for pest or weed control at 31 g/ha / pest or weed control at 62 g/ha / pest or weed control at 125 g/ha: read-out: Plant response rating (0 to 100), Blackgrass; for pest or weed control at 62 g/ha: 62 g ai/ha; for pest or weed control at 125 g/ha: 125 g ai/ha
# How it was run: as §2
# [12] = test system: large (Lg) crabgrass (Digitaria sanguinalis); assay: as above; details: Digitaria sanguinalis, post-emergence, Postemergence; for pest or weed control at 31 g/ha: 31 g ai/ha; for pest or weed control at 31 g/ha / pest or weed control at 62 g/ha / pest or weed control at 125 g/ha: read-out: Plant response rating (0 to 100), Crabgrass, Large; for pest or weed control at 62 g/ha: 62 g ai/ha; for pest or weed control at 125 g/ha: 125 g ai/ha
# How it was run: as §2
# [13] = test system: corn (Zea mays); assay: as above; details: Zea mays, post-emergence, Postemergence; for plant injury at 31 g/ha: 31 g ai/ha; for plant injury at 62 g/ha: 62 g ai/ha; for plant injury at 125 g/ha: 125 g ai/ha
# How it was run: as §2
# [14] = test system: yellow nutsedge (Cyperus esculentus); assay: as above; details: Cyperus, post-emergence, Postemergence; for pest or weed control at 62 g/ha: 62 g ai/ha; for pest or weed control at 62 g/ha / pest or weed control at 125 g/ha: read-out: Plant response rating (0 to 100), Nutsedge, Yellow; for pest or weed control at 125 g/ha: 125 g ai/ha
# How it was run: as §2
# [15] = read-out: Plant response rating (0 to 100), Pigweed
smiles,measurement,setting,value
"CCCn1cc(C(=O)c2ccccc2)c(-c2cc(Cl)cc(Cl)c2)n1 [Compound 61, [3-(3,5-dichlorophenyl)-1-propyl-1H-pyrazol-4-yl]phenylmethanone]","Plant response rating (0 to 100), Bermudagrass",[1]; 31 g ai/ha,0
same,"Plant response rating (0 to 100), Bermudagrass",[1]; 62 g ai/ha,5
same,"Plant response rating (0 to 100), Bermudagrass",[1]; 125 g ai/ha,5
same,"Plant response rating, Bermudagrass","[1]; 250 g ai/ha, scale 0 to 100",5
same,"Plant response rating (0 to 100), Goosegrass",[2]; 31 g ai/ha,0
same,"Plant response rating (0 to 100), Goosegrass",[2]; 62 g ai/ha,0
same,"Plant response rating (0 to 100), Goosegrass",[2]; 125 g ai/ha,0
same,"Plant response rating, Goosegrass","[2]; 250 g ai/ha, scale 0 to 100",5
same,plant injury at 62 g/ha,[3],0%
same,plant injury at 125 g/ha,[3],10%
same,plant injury at 250 g/ha,"[3]; 250 g ai/ha, scale 0 to 100",15%
same,pest or weed control at 31 g/ha,[4],0%
same,pest or weed control at 62 g/ha,[4],0%
same,pest or weed control at 125 g/ha,[4],0%
same,pest or weed control at 250 g/ha,"[4]; 250 g ai/ha, scale 0 to 100",0%
same,pest or weed control at 62 g/ha,[5],0%
same,pest or weed control at 125 g/ha,[5],0%
same,pest or weed control at 250 g/ha,"[5]; 250 g ai/ha, scale 0 to 100",0%
same,pest or weed control at 62 g/ha,[6],10%
same,pest or weed control at 125 g/ha,[6],40%
same,pest or weed control at 250 g/ha,"[6]; 250 g ai/ha, scale 0 to 100",40%
same,pest or weed control at 62 g/ha,[7],40%
same,pest or weed control at 125 g/ha,[7],55%
same,pest or weed control at 250 g/ha,"[7]; 250 g ai/ha, scale 0 to 100",55%
same,pest or weed control at 62 g/ha,"[8]; 62 g ai/ha, read-out: Plant response rating (0 to 100), Pigweed",100%
same,pest or weed control at 125 g/ha,[8]; [15],100%
same,pest or weed control at 250 g/ha,"[8]; 250 g ai/ha, scale 0 to 100",100%
same,pest or weed control at 62 g/ha,[9],40%
same,pest or weed control at 125 g/ha,[9],75%
same,pest or weed control at 250 g/ha,"[9]; 250 g ai/ha, scale 0 to 100",75%
same,pest or weed control at 62 g/ha,[10],0%
same,pest or weed control at 125 g/ha,[10],0%
same,pest or weed control at 250 g/ha,"[10]; 250 g ai/ha, scale 0 to 100",0%
same,pest or weed control at 31 g/ha,[11],0%
same,pest or weed control at 62 g/ha,[11],0%
same,pest or weed control at 125 g/ha,[11],0%
same,pest or weed control at 250 g/ha,"[11]; 250 g ai/ha, scale 0 to 100",0%
same,pest or weed control at 31 g/ha,[12],5%
same,pest or weed control at 62 g/ha,[12],5%
same,pest or weed control at 125 g/ha,[12],5%
same,pest or weed control at 250 g/ha,"[12]; 250 g ai/ha, scale 0 to 100",5%
same,plant injury at 31 g/ha,[13],5%
same,plant injury at 62 g/ha,[13],5%
same,plant injury at 125 g/ha,[13],5%
same,"Corn plant response rating (crop injury, 0 = no effect, 100 = complete kill) at 250 g/ha","[13]; 250 g ai/ha, scale 0 to 100",5%
same,pest or weed control at 62 g/ha,[14],0%
same,pest or weed control at 125 g/ha,[14],5%
same,pest or weed control at 250 g/ha,"[14]; 250 g ai/ha, scale 0 to 100",5%
"CCn1cc(C(=O)c2ccccc2)c(-c2cc(Cl)cc(Cl)c2)n1 [Compound 31, [3-(3,5-dichlorophenyl)-1-ethyl-1H-pyrazol-4-yl]phenylmethanone]","Plant response rating, Bermudagrass",[1]; 16 g ai/ha,0
same,"Plant response rating (0 to 100), Bermudagrass",[1]; 31 g ai/ha,0
same,"Plant response rating (0 to 100), Bermudagrass",[1]; 62 g ai/ha,0
same,"Plant response rating (0 to 100), Bermudagrass",[1]; 125 g ai/ha,0
same,"Plant response rating, Goosegrass",[2]; 16 g ai/ha,0
same,"Plant response rating (0 to 100), Goosegrass",[2]; 31 g ai/ha,0
same,"Plant response rating (0 to 100), Goosegrass",[2]; 62 g ai/ha,0
same,"Plant response rating (0 to 100), Goosegrass",[2]; 125 g ai/ha,0
same,plant injury at 16 g/ha,[3]; 16 g ai/ha,0%
same,plant injury at 62 g/ha,[3],0%
same,plant injury at 125 g/ha,[3],5%
same,pest or weed control at 16 g/ha,[4]; 16 g ai/ha,0%
same,pest or weed control at 31 g/ha,[4],0%
same,pest or weed control at 62 g/ha,[4],0%
same,pest or weed control at 125 g/ha,[4],5%
same,pest or weed control at 16 g/ha,[5]; 16 g ai/ha,0%
same,pest or weed control at 62 g/ha,[5],5%
same,pest or weed control at 125 g/ha,[5],5%
same,pest or weed control at 16 g/ha,[6]; 16 g ai/ha,0%
same,pest or weed control at 62 g/ha,[6],0%
same,pest or weed control at 125 g/ha,[6],5%
same,pest or weed control at 16 g/ha,[7]; 16 g ai/ha,25%
same,pest or weed control at 62 g/ha,[7],55%
same,pest or weed control at 125 g/ha,[7],80%
same,pest or weed control at 16 g/ha,[8]; 16 g ai/ha,20%
same,pest or weed control at 125 g/ha,[8]; [15],75%
same,pest or weed control at 16 g/ha,[9]; 16 g ai/ha,50%
same,pest or weed control at 62 g/ha,[9],75%
same,pest or weed control at 125 g/ha,[9],80%
same,pest or weed control at 16 g/ha,[10]; 16 g ai/ha,0%
same,pest or weed control at 62 g/ha,[10],0%
same,pest or weed control at 125 g/ha,[10],0%
same,pest or weed control at 16 g/ha,[11]; 16 g ai/ha,0%
same,pest or weed control at 31 g/ha,[11],0%
same,pest or weed control at 62 g/ha,[11],0%
same,pest or weed control at 125 g/ha,[11],0%
same,pest or weed control at 16 g/ha,[12]; 16 g ai/ha,5%
same,pest or weed control at 31 g/ha,[12],5%
same,pest or weed control at 62 g/ha,[12],5%
same,pest or weed control at 125 g/ha,[12],5%
same,"Corn plant response rating (crop injury, 0 = no effect, 100 = complete kill) at 16 g/ha",[13]; 16 g ai/ha,0%
same,plant injury at 31 g/ha,[13],0%
same,plant injury at 62 g/ha,[13],0%
same,plant injury at 125 g/ha,[13],0%
same,pest or weed control at 16 g/ha,[14]; 16 g ai/ha,0%
same,pest or weed control at 62 g/ha,[14],5%
same,pest or weed control at 125 g/ha,[14],5%
